In article PMC8245078, “Development of novel benzofuran-isatin conjugates as potential antiproliferative agents with apoptosis inducing mechanism in Colon cancer” (Journal of Enzyme Inhibition and Medicinal Chemistry, 2021):
Read-outs that look alike come from different tables or passages of the source.

Experiments:
Test in all cases: NCI single dose screening (10 µM)
Type in all cases: cell-based
CCRF-CEM = conditions: Homo sapiens, read-out: GI% (cell growth inhibition percentage)
MOLT-4 = conditions: Homo sapiens
HL-60(TB) = conditions: Homo sapiens
SR = conditions: Homo sapiens, read-out: GI% (cell growth inhibition percentage)
EKVX = conditions: Homo sapiens, read-out: GI% (cell growth inhibition percentage)
NCI-H23 = conditions: Homo sapiens
HCC-2998 = conditions: Homo sapiens
SW-620 = conditions: Homo sapiens
HT-29 = conditions: Homo sapiens
SF-295 = conditions: Homo sapiens
U251 = conditions: Homo sapiens
SNB-19 = conditions: Homo sapiens
MALME-3M = conditions: Homo sapiens, read-out: GI% (cell growth inhibition percentage)
M14 = conditions: Homo sapiens
UACC-257 = conditions: Homo sapiens
UACC-62 = conditions: Homo sapiens
SK-MEL-28 = conditions: Homo sapiens
IGROV1 = conditions: Homo sapiens
OVCAR-8 = conditions: Homo sapiens
OVCAR-5 = conditions: Homo sapiens
786-0 = conditions: Homo sapiens
CAKI-1 = conditions: Homo sapiens
ACHN = conditions: Homo sapiens, read-out: GI% (cell growth inhibition percentage)
SN12C = conditions: Homo sapiens, read-out: GI% (cell growth inhibition percentage)
RXF 393 = conditions: Homo sapiens
UO-31 = conditions: Homo sapiens
TK-10 = conditions: Homo sapiens
DU-145 = conditions: Homo sapiens
MCF7 = conditions: Homo sapiens
BT-549 = conditions: Homo sapiens
HS 578 T = conditions: Homo sapiens, read-out: GI% (cell growth inhibition percentage)
T-47D = conditions: Homo sapiens, T47D, read-out: GI% (cell growth inhibition percentage)
[1] = Renal cancer, single dose 10^−5 M
[2] = MOLT-4, read-out: GI% (cell growth inhibition percentage)
[3] = HL-60, read-out: GI% (cell growth inhibition percentage)
[4] = NCI-H23, read-out: GI% (cell growth inhibition percentage)
[5] = HCC 2998, read-out: GI% (cell growth inhibition percentage)
[6] = SW-620, read-out: GI% (cell growth inhibition percentage)
[7] = HT-29, read-out: GI% (cell growth inhibition percentage)
[8] = SF-295, read-out: GI% (cell growth inhibition percentage)
[9] = U-251, read-out: GI% (cell growth inhibition percentage)
[10] = SNB-19, read-out: GI% (cell growth inhibition percentage)
[11] = M14, read-out: GI% (cell growth inhibition percentage)
[12] = UACC-257, read-out: GI% (cell growth inhibition percentage)
[13] = UACC-62, read-out: GI% (cell growth inhibition percentage)
[14] = SK-MEL-28, read-out: GI% (cell growth inhibition percentage)
[15] = IGROV-1, read-out: GI% (cell growth inhibition percentage)
[16] = OVCAR-8, read-out: GI% (cell growth inhibition percentage)
[17] = OVCAR-5, read-out: GI% (cell growth inhibition percentage)
[18] = 786-0, read-out: GI% (cell growth inhibition percentage)
[19] = CAKI-1, read-out: GI% (cell growth inhibition percentage)
[20] = RXF 393, read-out: GI% (cell growth inhibition percentage)
[21] = UO-31, read-out: GI% (cell growth inhibition percentage)
[22] = TK-10, read-out: GI% (cell growth inhibition percentage)
[23] = DU-145, read-out: GI% (cell growth inhibition percentage)
[24] = MCF7, read-out: GI% (cell growth inhibition percentage)
[25] = BT-549, read-out: GI% (cell growth inhibition percentage)

Cc1c(C(=O)N/N=C2\C(=O)N(C)c3ccccc32)oc2ccccc12 [Compound 7a]
inhibition at 10 µM (CCRF-CEM; Leukaemia, single dose 10^−5 M): < 10% | inhibition at 10 µM (MOLT-4; MOLT-4, Leukaemia, single dose 10^−5 M, read-out: GI% (cell growth inhibition percentage)): < 10% | inhibition at 10 µM (HL-60(TB); HL-60(TB), Leukaemia, single dose 10^−5 M, read-out: GI% (cell growth inhibition percentage)): < 10% | inhibition at 10 µM (SR; Leukaemia, single dose 10^−5 M): < 10% | inhibition at 10 µM (EKVX; Non-small cell lung cancer, single dose 10^−5 M): 25.1% | inhibition at 10 µM (NCI-H23; NCI-H23, Non-small cell lung cancer, single dose 10^−5 M, read-out: GI% (cell growth inhibition percentage)): < 10% | inhibition at 10 µM (HCC-2998; HCC-2998, Colon cancer, single dose 10^−5 M, read-out: GI% (cell growth inhibition percentage)): < 10% | inhibition at 10 µM (SW-620; SW-620, Colon cancer, single dose 10^−5 M, read-out: GI% (cell growth inhibition percentage)): 30.6% | inhibition at 10 µM (HT-29; HT-29, Colon cancer, single dose 10^−5 M, read-out: GI% (cell growth inhibition percentage)): < 10% | inhibition at 10 µM (SF-295; SF-295, CNS cancer, single dose 10^−5 M, read-out: GI% (cell growth inhibition percentage)): 11.8% | inhibition at 10 µM (U251; U-251, U251, CNS cancer, single dose 10^−5 M, read-out: GI% (cell growth inhibition percentage)): < 10% | inhibition at 10 µM (SNB-19; SNB-19, CNS cancer, single dose 10^−5 M, read-out: GI% (cell growth inhibition percentage)): < 10% | inhibition at 10 µM (MALME-3M; MALME-3M, Melanoma, single dose 10^−5 M): < 10% | inhibition at 10 µM (M14; M14, Melanoma, single dose 10^−5 M, read-out: GI% (cell growth inhibition percentage)): < 10% | inhibition at 10 µM (UACC-257; UACC-257, Melanoma, single dose 10^−5 M, read-out: GI% (cell growth inhibition percentage)): < 10% | inhibition at 10 µM (UACC-62; UACC-62, Melanoma, single dose 10^−5 M, read-out: GI% (cell growth inhibition percentage)): < 10% | inhibition at 10 µM (SK-MEL-28; SK-MEL-28, Melanoma, single dose 10^−5 M, read-out: GI% (cell growth inhibition percentage)): < 10% | inhibition at 10 µM (IGROV1; IGROV-1, IGROV1, Ovarian cancer, single dose 10^−5 M, read-out: GI% (cell growth inhibition percentage)): 32.8% | inhibition at 10 µM (OVCAR-8; OVCAR-8, Ovarian cancer, single dose 10^−5 M, read-out: GI% (cell growth inhibition percentage)): < 10% | inhibition at 10 µM (OVCAR-5; OVCAR-5, Ovarian cancer, single dose 10^−5 M, read-out: GI% (cell growth inhibition percentage)): < 10% | inhibition at 10 µM (786-0; 786-0, Renal cancer, single dose 10^−5 M, read-out: GI% (cell growth inhibition percentage)): < 10% | inhibition at 10 µM (CAKI-1; CAKI-1, Renal cancer, single dose 10^−5 M, read-out: GI% (cell growth inhibition percentage)): 19.4% | inhibition at 10 µM (ACHN; [1]): < 10% | inhibition at 10 µM (SN12C; [1]): < 10% | inhibition at 10 µM (RXF 393; RXF 393, Renal cancer, single dose 10^−5 M, read-out: GI% (cell growth inhibition percentage)): < 10% | inhibition at 10 µM (UO-31; UO-31, Renal cancer, single dose 10^−5 M, read-out: GI% (cell growth inhibition percentage)): < 10% | inhibition at 10 µM (TK-10; TK-10, Renal cancer, single dose 10^−5 M, read-out: GI% (cell growth inhibition percentage)): < 10% | inhibition at 10 µM (DU-145; DU-145, Prostate cancer, single dose 10^−5 M, read-out: GI% (cell growth inhibition percentage)): < 10% | inhibition at 10 µM (MCF7; MCF7, Breast cancer, single dose 10^−5 M, read-out: GI% (cell growth inhibition percentage)): 28.2% | inhibition at 10 µM (BT-549; BT-549, Breast cancer, single dose 10^−5 M, read-out: GI% (cell growth inhibition percentage)): < 10% | inhibition at 10 µM (HS 578 T; HS 578 T, Breast cancer, single dose 10^−5 M): < 10% | inhibition at 10 µM (T-47D; T-47D, Breast cancer, single dose 10^−5 M): 21.8%

Cc1c(C(=O)N/N=C2\C(=O)N(Cc3ccccc3)c3ccccc32)oc2ccccc12 [Compound 7d]
inhibition at 10 µM (CCRF-CEM): < 10% | inhibition at 10 µM (MOLT-4; [2]): < 10% | inhibition at 10 µM (HL-60(TB); [3]): < 10% | inhibition at 10 µM (SR): < 10% | inhibition at 10 µM (EKVX): 30.2% | inhibition at 10 µM (NCI-H23; [4]): 13.2% | inhibition at 10 µM (HCC-2998; [5]): < 10% | inhibition at 10 µM (SW-620; [6]): 11.2% | inhibition at 10 µM (HT-29; [7]): < 10% | inhibition at 10 µM (SF-295; [8]): < 10% | inhibition at 10 µM (U251; [9]): < 10% | inhibition at 10 µM (SNB-19; [10]): 11.6% | inhibition at 10 µM (MALME-3M; Malme-3M): < 10% | inhibition at 10 µM (M14; [11]): < 10% | inhibition at 10 µM (UACC-257; [12]): < 10% | inhibition at 10 µM (UACC-62; [13]): 20.6% | inhibition at 10 µM (SK-MEL-28; [14]): < 10% | inhibition at 10 µM (IGROV1; [15]): 33.6% | inhibition at 10 µM (OVCAR-8; [16]): < 10% | inhibition at 10 µM (OVCAR-5; [17]): < 10% | inhibition at 10 µM (786-0; [18]): < 10% | inhibition at 10 µM (CAKI-1; [19]): 19% | inhibition at 10 µM (ACHN): 13.3% | inhibition at 10 µM (SN12C): < 10% | inhibition at 10 µM (RXF 393; [20]): < 10% | inhibition at 10 µM (UO-31; [21]): 33.6% | inhibition at 10 µM (TK-10; [22]): < 10% | inhibition at 10 µM (DU-145; [23]): < 10% | inhibition at 10 µM (MCF7; [24]): 16.7% | inhibition at 10 µM (BT-549; [25]): < 10% | inhibition at 10 µM (HS 578 T; Hs-578T): < 10% | inhibition at 10 µM (T-47D): 33.3%

CCCN1C(=O)/C(=N\NC(=O)c2oc3ccccc3c2C)c2ccccc21 [Compound 7b]
inhibition at 10 µM (CCRF-CEM): < 10% | inhibition at 10 µM (MOLT-4; [2]): < 10% | inhibition at 10 µM (HL-60(TB); [3]): 10.9% | inhibition at 10 µM (SR): < 10% | inhibition at 10 µM (EKVX): 32.4% | inhibition at 10 µM (NCI-H23; [4]): 15.1% | inhibition at 10 µM (HCC-2998; [5]): < 10% | inhibition at 10 µM (SW-620; [6]): < 10% | inhibition at 10 µM (HT-29; [7]): < 10% | inhibition at 10 µM (SF-295; [8]): 11.9% | inhibition at 10 µM (U251; [9]): < 10% | inhibition at 10 µM (SNB-19; [10]): < 10% | inhibition at 10 µM (MALME-3M; Malme-3M): < 10% | inhibition at 10 µM (M14; [11]): < 10% | inhibition at 10 µM (UACC-257; [12]): < 10% | inhibition at 10 µM (UACC-62; [13]): 16.9% | inhibition at 10 µM (SK-MEL-28; [14]): < 10% | inhibition at 10 µM (IGROV1; [15]): 42.5% | inhibition at 10 µM (OVCAR-8; [16]): < 10% | inhibition at 10 µM (OVCAR-5; [17]): < 10% | inhibition at 10 µM (786-0; [18]): < 10% | inhibition at 10 µM (CAKI-1; [19]): 11.3% | inhibition at 10 µM (ACHN): 11.6% | inhibition at 10 µM (SN12C): < 10% | inhibition at 10 µM (RXF 393; [20]): < 10% | inhibition at 10 µM (UO-31; [21]): 34.3% | inhibition at 10 µM (TK-10; [22]): < 10% | inhibition at 10 µM (DU-145; [23]): < 10% | inhibition at 10 µM (MCF7; [24]): 25% | inhibition at 10 µM (BT-549; [25]): < 10% | inhibition at 10 µM (HS 578 T; Hs-578T): < 10% | inhibition at 10 µM (T-47D): 23.8%
